Measurements taken from US7923204B2, “Forward mutation assay based on 5-fluorouracil resistance” (priority 2003, dated 2011).
Where two headings read alike, the source gives them in different places. Marks after values point to notes of the source that are not given here.

What was measured:
FU100 [1] = tested on: FU100
[2] = tested on: sister chromatid exchange; conditions: cited from earlier work
chromosome aberrations = conditions: cited from earlier work
mouse lymphoma = conditions: cited from earlier work
FU100 [3] = tested on: FU100; remark: listed apart in the source
Method: Briefly, in order to practice the disclosed mutation assay one-ml aliquots of exponentially growing bacteria are exposed to the test agent for two hours in the presence and absence of a metabolic activation system, such as a mammalian (i.e., rat, hamster or human) liver homogenate (S9-fraction or liver microsomal enzymes). The aliquots are then diluted, allowed to grow for 3 hours, and assessed for treatment-related toxicity/inhibition by optical density. The cultures are subsequently diluted a second time and grown overnight to permit full recovery from toxicity and to allow expression of the FU^R phenotype. Samples of the cultures are then plated in 384-well microtiter dishes in the presence of 2 μg/ml 5-FU and the pH-sensitive indicator bromcresol purple. Three days later positive wells containing FU^R colonies are detected by their yellow color and enumerated. Treated cultures are then compared to control plates to determine genotoxic activity.
For each mutation experiment, two frozen 1-ml aliquots of FU100 were quickly thawed in a 37° C. water bath, pelleted by centrifugation, washed to remove the DMSO, and suspended in 35 mL of MinE medium. The culture was shaken for approximately 1 hour at 37° C. until the optical density at 600 nm (OD600) reached the target density of 0.3. A 16-ml aliquot of culture was added to each of two 50-ml tubes containing 3.6 ml of a NADPH-generating system (5.6 mM glucose-6-phosphate, 4.5 mM NADP+, 5 mM sucrose, 110 mM Na2HPO4, 37 mM KCl, and 9 mM MgCl2) and either 0.4 ml rat liver S-9 or an equal volume of sodium phosphate buffer. Aliquots of these mixtures were distributed into three 12-well cluster dishes (one for exposure with S-9, one for exposure without S-9, one for controls with and without S-9), and exposed to test compounds as 1-ml aliquots for 2 hour as outlined in FIG. 1.
Following treatment, the 1-ml aliquots were transferred into 9 ml of warm MinE medium in a 50 ml tube and incubated at 37° C. on a rotary wheel for 3 hours. Next, 20 ml of medium was added to each culture tube and 0.25 ml aliquots were transferred to a 96-well plate for OD600 measurements to assess toxicity (OD Day 1). […] Bulk cultures were then incubated overnight in the dark at 30° C. to permit recovery from toxicity and to allow time for the test cells to express the FU^R phenotype.
The next day, OD600 was again assessed to adjust cell number plated on 5-FU plates (OD Day 2; 100 μl of the culture diluted with 150 μl MinE medium for OD600 measurements). For plating, a 35 μl aliquot of each culture was added to 31.4 mL of MinE medium with 2 μg/ml of 5-FU and 10 μg/ml of bromcresol purple. The mixture was then dispersed into a 384-well plate (75 μl/well) and placed at 37° C. for 3 days in a humidified incubator.
The data obtained for both survival (OD day 1), relative number of cells plated (OD day 2), and number of positive wells were imported into an Excel template.
Table 8 summarizes the criteria for positive result in 5-FU assay using the FU100 tester strain described and claimed herein. […] A positive compound was defined when two or more doses met the aforementioned criteria.

Salmonella = conditions: cited from earlier work
micronucleus = conditions: cited from earlier work
TA100, TA1535 = tested on: TA100, TA1535
Excerpt: As stated above, the Ames Salmonella his+ plate incorporation assay evaluates genotoxic activity (mutagenicity) of chemical compounds on a set of genetically modified bacterial tester strains that are auxotrophic for the amino acid histidine. In practice, the Ames Assay simultaneously evaluates the genotoxic activity of a potential mutagen on several different target genes. The standard Ames Assay utilizes several different tester strains, each with a distinct mutation (e.g., transition, frameshift etc.) in one of the genes comprising the histidine (his) biosynthetic operon. The his operon encodes enzymes required for the biosynthesis of the amino acid histidine. For example, strain TA98 contains the hisD3052 allele which is reverted by a frameshift mutation, while strain TA1535 contains the hisG46 allele which is reverted by transition and transversion mutations. More specifically, the Ames Assay evaluates the ability of a chemical agent to increase the rate of reversion of auxotrophic strains of Salmonella to prototrophy.

[4] = in the presence of S9 activation (+), approximate, first dose with greater than 50% survival by optical density on Day 1
[5] = without S9 activation (−), approximate, first dose with greater than 50% survival by optical density on Day 1
[6] = NTP Results Report 12 Aug. 2002
[7] = in the presence of S9 activation (+), FU100, 2 h exposure
[8] = without S9 activation (−), FU100, 2 h exposure
[9] = without S9 activation (−), lowest dose tested giving a positive response
[10] = NTP Results Report 12 Aug. 2002 or cited reference (footnotes f, g, i, j)

Row | Compound | LD50 (FU100 [1]; [4]) | LD50 (FU100 [1]; [5]) | NTP Results: SC = sister chromatid exchange [2, 6] | NTP Results: CA = chromosome aberrations (chromosome aberrations; [6]) | NTP Results: ML = mouse lymphoma (mouse lymphoma; [6]) | Results (5-FU assay) (FU100 [3]; [7]) | Results (5-FU assay) (FU100 [3]; [8]) | NTP Results: SA = Salmonella (Salmonella; [10]) | NTP Results: SC = sister chromatid exchange [2] | NTP Results: CA = chromosome aberrations (chromosome aberrations) | NTP Results: ML = mouse lymphoma (mouse lymphoma) | Results (5-FU assay) (FU100 [3]) | NTP Results: SA = Salmonella (Salmonella) | response in the 5-FU Assay (in words) (FU100 [3]) | other results
1 | Nc1ccc([N+](=O)[O-])cc1O [2-Amino-5-nitrophenol] | >150 µg/mL | >300 µg/mL | (SA+, CA+, SC+, ML+) | (SA+, CA+, SC+, ML+) | (SA+, CA+, SC+, ML+) | Neg | Pos | (SA+, CA+, SC+, ML+) |  |  |  |  |  |  | Lowest Positive Dose (FU100 [3]; [9]): 2.8 µg/mL
2 | CC1CCC(C(C)C)C(O)C1 (centres unmarked) [Menthol] | >9 µg/mL | >16 µg/mL | (SA−, CA−, SC−, ML−, MN−) | (SA−, CA−, SC−, ML−, MN−) | (SA−, CA−, SC−, ML−, MN−) | Neg | Neg | (SA−, CA−, SC−, ML−, MN−) |  |  |  |  |  |  | NTP Results: MN = micronucleus (micronucleus; [6]): (SA−, CA−, SC−, ML−, MN−)
3 | O=C1CN(/N=C/c2ccc([N+](=O)[O-])o2)C(=O)N1 [Nitrofurantoin] |  |  |  |  |  |  |  |  | (SA+, CA+, SC+, ML+, MN−) | (SA+, CA+, SC+, ML+, MN−) | (SA+, CA+, SC+, ML+, MN−) | Pos | (SA+, CA+, SC+, ML+, MN−) |  | LD50 (FU100 [1]; Salmonella typhimurium): >1 µg/mL; NTP Results: MN = micronucleus (micronucleus): (SA+, CA+, SC+, ML+, MN−); Lowest Positive Dose (FU100 [3]; Salmonella typhimurium): 0.1 µg/mL
4 | CCCCC(CC)COC(=O)c1ccccc1C(=O)OCC(CC)CCCC (centres unmarked) [Di (2-ethylhexyl) phthalate] | >5000 µg/mL | >5000 µg/mL |  |  |  |  |  |  | (SA−, CA−, SC+−?, ML−, MN?) | (SA−, CA−, SC+−?, ML−, MN?) | (SA−, CA−, SC+−?, ML−, MN?) | Neg | (SA−, CA−, SC+−?, ML−, MN?) | negative/non-toxic | NTP Results: MN = micronucleus (micronucleus): (SA−, CA−, SC+−?, ML−, MN?)
5 | CC/C(=C(/CC)c1ccc(O)cc1)c1ccc(O)cc1 [Diethylstilbestrol] |  |  | − | + | + |  |  |  |  |  |  | Neg | (SA−, CA+, SC−, ML+) |  | 
6 | Nc1ncn([C@@H]2O[C@H](CO)[C@@H](O)[C@H]2O)c(=O)n1 [5-Azacytidine] | >5 µg/mL | >3 µg/mL |  |  |  |  |  |  | (SA+, CA+, SC+, ML+, MN+) | (SA+, CA+, SC+, ML+, MN+) | (SA+, CA+, SC+, ML+, MN+) | Pos | (SA+, CA+, SC+, ML+, MN+) |  | NTP Results: MN = micronucleus (micronucleus): (SA+, CA+, SC+, ML+, MN+)
7 | COc1ccc(O)c(C(C)(C)C)c1 [Butylated Hydroxyanisole] | >30 µg/mL | >30 µg/mL |  |  |  | Neg | Neg | (SA−, MN−) |  |  |  |  |  |  | NTP Results: MN = micronucleus (micronucleus; [6]): (SA−, MN−)
8 | C=CCc1ccc2c(c1)OCO2 [Safrole] | >50 µg/mL | >60 µg/mL |  |  |  |  |  |  | (SA−, CA−, SC+ ML+) | (SA−, CA−, SC+ ML+) | (SA−, CA−, SC+ ML+) | Neg | (SA−, CA−, SC+ ML+) |  | 
9 | CC(C)CON=O [Isobutyl Nitrite] |  |  | (SA+, CA+, SC+, MN+) | (SA+, CA+, SC+, MN+) |  |  |  | (SA+, CA+, SC+, MN+) |  |  |  | Pos |  | positive compounds in toxic concentrations | NTP Results: MN = micronucleus (micronucleus; [6]): (SA+, CA+, SC+, MN+)
10 | [N-]=[N+]=[N-] [Sodium Azide] | >30 µg/mL | >50 µg/mL | + | − |  | Pos^w | Pos^w | + |  |  |  |  |  |  | concentration producing a positive response in the 5-FU Assay (FU100 [3]; S9 condition not stated): greater than 90 μg/ml; Lowest Positive Dose (FU100 [3]; in the presence of S9 activation (+), lowest dose tested giving a positive response): 90 µg/mL; Lowest Positive Dose (FU100 [3]; [9]): 160 µg/mL; response in the standard Ames assay (in words) (TA100, TA1535; TA100 or TA1535, plate incorporation or liquid suspension): extremely sensitive
11 | Oc1cccc2cccnc12 [8-Hydroxyquinoline] |  |  |  |  |  |  |  |  | (SA+, CA+^w, SC+, ML+, MN−) | (SA+, CA+^w, SC+, ML+, MN−) | (SA+, CA+^w, SC+, ML+, MN−) |  | (SA+, CA+^w, SC+, ML+, MN−) | positive compounds in toxic concentrations | NTP Results: MN = micronucleus (micronucleus): (SA+, CA+^w, SC+, ML+, MN−)
12 | COC(=O)[C@H]1[C@H]2C[C@@H]3c4[nH]c5cc(OC)ccc5c4CCN3C[C@H]2C[C@@H](OC(=O)c2cc(OC)c(OC)c(OC)c2)[C@@H]1OC [Reserpine] | >1500 µg/mL | >1500 µg/mL | − |  | − | Neg | Neg | − |  |  |  |  |  |  | NTP Results: MN = micronucleus (micronucleus; [6]): −
13 | Oc1ccc(Cl)cc1Cl [2,4-Dichlorophenol] |  |  | + | − | + | Neg | Neg |  |  |  |  |  |  |  | 
14 | OO [Hydrogen Peroxide] |  |  |  |  |  |  |  |  |  |  |  | Pos | (SA+^w) | positive compounds in toxic concentrations | Lowest Positive Dose (FU100 [3]; Salmonella typhimurium): 3 µg/mL; Results (5-FU assay) (FU100 [3]; s9): Neg; response in the 5-FU Assay (in words) (FU100 [3]; text and figure legend (FIG. 6), with or without S9): easy to detect; response in the standard Ames assay (in words) (TA100, TA1535): weak or equivocal response
15 | OCCO [Ethylene Glycol] |  |  |  |  |  |  |  |  | (SA−, CA−, SC−, ML−) | (SA−, CA−, SC−, ML−) | (SA−, CA−, SC−, ML−) | Neg | (SA−, CA−, SC−, ML−) |  | LD50 (FU100 [1]; Salmonella typhimurium): >5000 µg/mL
16 | Oc1ccccc1 [Phenol] |  |  |  |  |  |  |  |  | (SA−, CA+, SC+, ML+) | (SA−, CA+, SC+, ML+) | (SA−, CA+, SC+, ML+) | Neg | (SA−, CA+, SC+, ML+) | negative/toxic | 
